Our source for the TGI and GI50 values is PubChem BioAssay (NCI).

Some test systems named below: OVCAR-3 ovarian; CCRF-CEM leukemia; ACHN renal; SNB-75 CNS; RPMI-8226 leukemia; K-562 leukemia; LOX IMVI melanoma; SK-MEL-2 melanoma; HCC-2998 colon.
What all share (assay): inhibition of tumour cell growth, NCI panel, 48 h

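Growth conditions: 96-well plates. Treatment: test compound, 48 hours, 5 concentrations. Analysis: linear interpolation between bracketing concentrations; unreached endpoints set to highest concentration. GI50: concentration for 50% inhibition of growth. TGI denotes the concentration required for complete inhibition of growth.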

As to `CC1C[C@H](OC(N)=O)C(C)CC1=O` (stereo not given in full), the TGI with OVCAR-3 ovarian, with CCRF-CEM leukemia, in the test on ACHN renal, in the test on SNB-75 CNS, in the test on RPMI-8226 leukemia and in the test with K-562 leukemia was over 100 µM throughout. The TGI with LOX IMVI melanoma, in the test with SK-MEL-2 melanoma and in the test on HCC-2998 colon was over 100 µM in each case.

`COC1(OC)CC2C=C(S(=O)(=O)c3ccccc3)C1N(Cc1ccccc1)C2=O` (stereo not given): the TGI in the test with OVCAR-3 ovarian is 56.6 µM; with CCRF-CEM leukemia it was 90.9 µM; with ACHN renal, over 100 µM; in the test with SNB-75 CNS, over 100 µM; in the test with K-562 leukemia it was over 100 µM; in the test with LOX IMVI melanoma, 33.1 µM. In the test with HCC-2998 colon, this compound gave a TGI of over 100 µM.

Turning to `CC(C)c1ccccc1NC(=O)C(=O)Cc1nc2ccccc2s1`, the TGI in the test with OVCAR-3 ovarian, with CCRF-CEM leukemia, in the test on ACHN renal, with SNB-75 CNS, with SK-MEL-2 melanoma and with HCC-2998 colon was over 100 µM throughout.

For the compound `Brc1ccc(-c2nnc(-c3nn(-c4ccccc4)c4nc5ccccc5nc34)o2)cc1`, the TGI with OVCAR-3 ovarian, in the test on CCRF-CEM leukemia, in the test with ACHN renal, in the test with SNB-75 CNS, with RPMI-8226 leukemia and with K-562 leukemia was over 100 µM throughout. The TGI in the test on LOX IMVI melanoma, with SK-MEL-2 melanoma and in the test on HCC-2998 colon was over 100 µM throughout.

For `Cc1ccc(NC(=O)c2cccc([N+](=O)[O-])c2O)c([N+](=O)[O-])c1`, the TGI in the test with OVCAR-3 ovarian is 44.1 µM; with CCRF-CEM leukemia, over 100 µM; with ACHN renal, 58.1 µM; in the test with SNB-75 CNS, 29.4 µM; with RPMI-8226 leukemia, over 100 µM; in the test with K-562 leukemia it was over 100 µM. Further, the TGI is 25.1 µM in the test with LOX IMVI melanoma and 29.5 µM in the test on HCC-2998 colon.

Consider `O=C(CC1(O)C(=O)Nc2ccccc21)c1ccccc1Cl` (stereo not given), for which the TGI with OVCAR-3 ovarian, with ACHN renal, with SNB-75 CNS, in the test with RPMI-8226 leukemia, with K-562 leukemia and in the test on LOX IMVI melanoma was over 100 µM each time. For the same compound, in the test on SK-MEL-2 melanoma, the TGI was over 100 µM.

With `CCOC(=O)C(=O)Nc1ccc(C)cc1C`, the TGI in the test on OVCAR-3 ovarian, in the test with CCRF-CEM leukemia, in the test on ACHN renal, in the test with RPMI-8226 leukemia, in the test on K-562 leukemia and in the test on LOX IMVI melanoma was over 100 µM in each case. The TGI with SK-MEL-2 melanoma and in the test with HCC-2998 colon was over 100 µM in each case.

Consider `CCn1cc(/C=C/C(C)c2cn(CC)c(=O)[nH]c2=O)c(=O)[nH]c1=O` (stereo not given), for which the TGI with OVCAR-3 ovarian, in the test with CCRF-CEM leukemia, with ACHN renal, with SNB-75 CNS, in the test on RPMI-8226 leukemia and with K-562 leukemia was over 100 µM in each case. Besides, the TGI in the test on LOX IMVI melanoma, with SK-MEL-2 melanoma and in the test with HCC-2998 colon was over 100 µM each time.

On to `CC1=CC(=O)CCC2(C)C1CC[C@@H]2OC=O` (stereo not given in full), for which the TGI in the test on OVCAR-3 ovarian, with CCRF-CEM leukemia, with ACHN renal, with SNB-75 CNS, with RPMI-8226 leukemia and with K-562 leukemia was over 100 µM in each case. The TGI in the test with LOX IMVI melanoma, in the test on SK-MEL-2 melanoma and in the test with HCC-2998 colon was over 100 µM each time.

Consider `N/N=C1\C(=O)N(C2CCCCC2)C(=O)C1C(=O)NC1CCCCC1` (stereo not given), for which the TGI in the test with OVCAR-3 ovarian was 51 µM; in the test on CCRF-CEM leukemia, over 100 µM; in the test on ACHN renal, over 100 µM; with SNB-75 CNS it was over 100 µM; in the test on RPMI-8226 leukemia, over 100 µM; with K-562 leukemia it was over 100 µM. In addition, the results for the TGI with LOX IMVI melanoma, in the test on SK-MEL-2 melanoma and with HCC-2998 colon were over 100 µM, 74.7 µM and over 100 µM, respectively.

For `CCOC(=O)N1CCc2cc(OC)c(OC)c3c2C1CC3=O` (stereo not given), the TGI in the test with CCRF-CEM leukemia, with ACHN renal, with SNB-75 CNS, in the test with RPMI-8226 leukemia, with K-562 leukemia and with LOX IMVI melanoma was over 100 µM each time. Moreover, the TGI in the test with SK-MEL-2 melanoma and in the test with HCC-2998 colon was over 100 µM in each case.

With `COc1ccc(/C(=N/NC(=O)NN)C(c2ccc(OC)cc2)C2(O)CNc3c(Cl)cc(Cl)cc32)cc1` (stereo not given), the TGI in the test on OVCAR-3 ovarian, in the test on CCRF-CEM leukemia, in the test on ACHN renal, with SNB-75 CNS, in the test on RPMI-8226 leukemia and in the test with K-562 leukemia was over 100 µM in each case. For the same compound, the TGI in the test on LOX IMVI melanoma, in the test with SK-MEL-2 melanoma and with HCC-2998 colon was over 100 µM in each case.

For `COc1ccc(C2=NNC(=O)OC2c2ccccc2)cc1` (stereo not given), the TGI in the test with OVCAR-3 ovarian, in the test with CCRF-CEM leukemia, in the test with ACHN renal, in the test with SNB-75 CNS, in the test on RPMI-8226 leukemia and with K-562 leukemia was over 100 µM throughout. Besides, the TGI in the test on LOX IMVI melanoma, in the test on SK-MEL-2 melanoma and in the test with HCC-2998 colon was over 100 µM in each case.

For the compound `Cc1cc2c(=O)n(-c3ccc(F)cc3)c(C)nc2c(C(=O)O)c1C`, the TGI with OVCAR-3 ovarian, in the test on CCRF-CEM leukemia, in the test with ACHN renal, with SNB-75 CNS, with RPMI-8226 leukemia and in the test with K-562 leukemia was over 100 µM throughout. In addition, the TGI in the test with LOX IMVI melanoma, with SK-MEL-2 melanoma and in the test on HCC-2998 colon was over 100 µM throughout.

For the compound `O=C(CO)CC(=O)C(=O)Nc1nc([N+](=O)[O-])cs1`, the TGI with OVCAR-3 ovarian, in the test with CCRF-CEM leukemia, in the test on ACHN renal, in the test on SNB-75 CNS, in the test on RPMI-8226 leukemia and in the test on K-562 leukemia was over 100 µM in each case. Also, the TGI with LOX IMVI melanoma, with SK-MEL-2 melanoma and in the test with HCC-2998 colon was over 100 µM each time.

Regarding `Cc1ccc(-c2nc(SCC(=O)O)n[nH]2)cc1`, the TGI with OVCAR-3 ovarian, in the test with CCRF-CEM leukemia, in the test on ACHN renal, in the test with SNB-75 CNS, in the test on RPMI-8226 leukemia and in the test with K-562 leukemia was over 100 µM in each case. Also, the TGI with SK-MEL-2 melanoma and in the test with HCC-2998 colon was over 100 µM in each case.

`CCC[CH2][Sn]([CH2]CCC)([O]C(=O)c1cc(F)cc(F)c1)[O]C(=O)c1cc(F)cc(F)c1`: the GI50 in the test with OVCAR-3 ovarian is 1.36 µM; in the test on ACHN renal, 1.33 µM; in the test on SNB-75 CNS, 0.82 µM; in the test with K-562 leukemia it was 0.228 µM; in the test with LOX IMVI melanoma, 0.617 µM; in the test with SK-MEL-2 melanoma it was 298 nM. Also, the GI50 with HCC-2998 colon is 0.242 µM. Besides, the TGI came out at 2.65 µM in the test with OVCAR-3 ovarian; 2.61 µM with ACHN renal; 2.09 µM in the test on SNB-75 CNS; 0.965 µM in the test on K-562 leukemia; 1.91 µM in the test on LOX IMVI melanoma; 1.24 µM with SK-MEL-2 melanoma. In the test with HCC-2998 colon, the TGI amounted to 2 µM.

For the compound `N#CC(C(=O)/C(=N\Nc1nc(=S)[nH]n1N)C(C#N)c1ccc(Cl)cc1)c1ccc(Cl)cc1` (stereo not given), the TGI with OVCAR-3 ovarian, with ACHN renal, with SNB-75 CNS, with RPMI-8226 leukemia, in the test on LOX IMVI melanoma and in the test on SK-MEL-2 melanoma was over 100 µM in each case. In addition, the TGI with HCC-2998 colon is over 100 µM.

As to `Cn1c2c(c3ccccc31)C1CCCCC1C1C(=O)NC(=O)C21` (stereo not given), the TGI is 58 µM in the test on OVCAR-3 ovarian; over 100 µM in the test on CCRF-CEM leukemia; over 100 µM in the test on ACHN renal; 71.3 µM in the test on SNB-75 CNS; over 100 µM in the test with RPMI-8226 leukemia; over 100 µM in the test with K-562 leukemia. Also, the TGI in the test with LOX IMVI melanoma and in the test with HCC-2998 colon was over 100 µM throughout.

Consider `CN(C)c1ccc(N=Cc2c([O-])ccc3ccccc23)cc1.[C-]#[O+].[C-]#[O+].[Ir]`, for which the GI50 with OVCAR-3 ovarian was 16.6 µM; in the test with CCRF-CEM leukemia it was 4.76 µM; in the test on ACHN renal, 18.8 µM; with SNB-75 CNS it was 19.3 µM; in the test on RPMI-8226 leukemia, 23.2 µM; in the test with K-562 leukemia, 37 µM. The GI50 is 15.4 µM in the test with LOX IMVI melanoma and 18.8 µM with HCC-2998 colon. The TGI in the test with OVCAR-3 ovarian was 32.4 µM; in the test on CCRF-CEM leukemia it was over 100 µM; in the test with ACHN renal it was 43.7 µM; with SNB-75 CNS, 50.4 µM; with RPMI-8226 leukemia it was over 100 µM; in the test with K-562 leukemia, over 100 µM. Moreover, the TGI was determined as 30.4 µM with LOX IMVI melanoma and 35.3 µM in the test with HCC-2998 colon.

As to `O=S(O)CCCCCSSCCCCSSCCCCCS(=O)O`, the TGI with OVCAR-3 ovarian, with CCRF-CEM leukemia, in the test with ACHN renal, in the test with SNB-75 CNS, in the test on RPMI-8226 leukemia and in the test with K-562 leukemia was over 100 µM throughout. The TGI in the test on LOX IMVI melanoma and with SK-MEL-2 melanoma was over 100 µM throughout.

Turning to `COc1cc2c(cc1OC)-c1cc3cc(OC)c(OC)cc3n1CC2`, the TGI in the test on OVCAR-3 ovarian was over 100 µM; in the test with CCRF-CEM leukemia, over 100 µM; in the test on ACHN renal, 85.9 µM; with SNB-75 CNS, 50.5 µM; in the test on RPMI-8226 leukemia, over 100 µM; in the test on K-562 leukemia, over 100 µM. For the same compound, the TGI in the test with SK-MEL-2 melanoma and in the test with HCC-2998 colon was over 100 µM in each case.

Turning to `COc1ccc(/C=C2\CCCCC2=O)cc1`, the TGI in the test on OVCAR-3 ovarian, in the test on CCRF-CEM leukemia, with ACHN renal, with SNB-75 CNS, in the test on K-562 leukemia and in the test on LOX IMVI melanoma was over 100 µM in each case.
